Measured values taken from US20240238244A1, “USE OF A COMPOUND SUCH AS […] TREATING A VIRAL PULMONARY DISEASE” (4LIVING BIOTECH, priority 2021, published 2024).
Several values for one entry are separate records, joined by “and”; a condition that tells them apart may be missing. Equal values may be shown once. Read-outs that look alike come from different tables or passages of the source.

Columns and labels:
[1] = tested on: H3N2 influenza A virus strain Scotland/20/74
[2] = tested on: H3N2 influenza A virus strain Scotland/20/74; conditions: day 7; for Mean necrosis/cell death score: Influenza group 0.90; for Mean edema/HM/congestion score: Influenza group 1.50; for Mean inflammation score: Influenza group 1.90; for Mean total score according to Meyerholz and Beck: Influenza group 4.50
[3] = tested on: H3N2 influenza A virus strain Scotland/20/74; conditions: day 7; for Percentage of fibrocytes recruited in the lung: Infected group 28.05±26.78%, Not-infected 7.58±1.70%
Protocol: Treatments were administered twice a day subcutaneously (SC) in mice from day 1 to day 6 by grasping the skin along back of mice. The needle was inserted at base of skin old between thumb and finger and solution was injected. Plerixafor® was administered (100 μl) twice a day to group “Infected+Plerixafor 1 mg/kg”, “Infected+Plerixafor 3 mg/kg”, and “Infected+Plerixafor 10 mg/kg”. Thus, mice received daily 1, 3 and 10 mg/kg for 7 days for group “Infected+Plerixafor 1 mg/kg”, “Infected+Plerixafor 3 mg/kg”, and “Infected+Plerixafor 10 mg/kg” respectively. Group “Infected” received water twice a day (100 μl).
The percentage of general fibrocytes was evaluated in lung by flow cytometry analysis. The proportion of fibrocytes was assessed using a combination of Antibody/Fluorochrome, i.e. CD45+, FSP1+, and their viability was assessed using the Live Dead cell viability assay. For each tested condition, a general gating strategy was followed to identify the different sub-populations. First, cells of interest were selected according to granulometry and size events via the FSC-H (Forward Scatter Height) and SSC-H (Side Scatter Height) parameters. Then, on the selected cells, fibrocytes were identified as CD45+/FSP1+ cells.
The percentage of fibrocytes recruited in the lung was evaluated at day 7 for 4 mice per group (3 for non-infected group).

[4] = tested on: H3N2 influenza A virus strain Scotland/20/74; conditions: day 7; for Mean IL-17 levels in lung homogenates: Influenza group 575.58, non-infected 874.47; for Mean IL-1β levels in lung homogenates: Influenza group 3502.64, non-infected 1347.22; for Mean TNFα levels in lung homogenates: Influenza group 11038.49, non-infected 11879.58; for Mean IL-6 levels in lung homogenates: Influenza group 15055.10, non-infected 2412.49; for Mean C5a levels in lung homogenates: Influenza group 3758066.67, non-infected 2540416.67; for Mean CRP levels in lung homogenates: Influenza group 9243070.24, non-infected 2718616.67
[5] = Plerixafor 2.5 mg/kg daily SC (group 3M)
[6] = Plerixafor 5 mg/kg daily SC (group 4M)
[7] = Plerixafor 10 mg/kg daily SC (group 5M)
[8] = Plerixafor 20 mg/kg daily SC (group 6M)
[9] = Plerixafor 20 mg/kg daily SC (group 6M), p<0.01
[10] = Plerixafor at 2, 5, 5, 10 and 20 mg/kg
[11] = Plerixafor at 2, 5, 5 and 10 mg/kg

Question: `c1cc(CN2CCCNCCNCCCNCC2)ccc1CN1CCCNCCNCCCNCC1` [Plerixafor, 1,1′-[1,4-phenylene-bis(methylene)]-bis-1,4,8,11-tetraazacyclotetradecane] was tested. Which “BW (body weight) 7 days after the infection” value ([1]; Plerixafor 20 mg/kg daily (10 mg/kg SC twice a day, day 1 to 6), day 7, influenza group 94±5%, non-infected 103±4%, p<0.05) did it give?
Answer: 97±5%

Question: What about the “Modulation of BW loss” value ([1]; Plerixafor at doses inferior or equal to 10 mg/kg daily, SC twice a day, day 1 to 6) of the same molecule?
Answer: did not modulate BW loss

Question: And the “Mean necrosis/cell death score” value [2, 5]?
Answer: 0.50

Question: And the “Mean edema/HM/congestion score” value [2, 5]?
Answer: 0.70

Question: What about the Mean inflammation score [2, 5] of the same molecule?
Answer: 1.40

Question: What about the “Mean total score according to Meyerholz and Beck” value (from here on “Mean total score according”) [2, 5] of the same molecule?
Answer: 2.70

Question: What about the “Mean necrosis/cell death score” value [2, 6] of the same molecule?
Answer: 0.80

Question: What about the “Mean edema/HM/congestion score” value [2, 6] of the same molecule?
Answer: 0.90

Question: What about the Mean inflammation score [2, 6] of the same molecule?
Answer: 2.00

Question: And the “Mean total score according” value [2, 6]?
Answer: 4.00

Question: And the “Mean necrosis/cell death score” value [2, 7]?
Answer: 0.50

Question: And the “Mean edema/HM/congestion score” value [2, 7]?
Answer: 0.50

Question: And the Mean inflammation score [2, 7]?
Answer: 1.70

Question: And the “Mean total score according” value [2, 7]?
Answer: 2.90

Question: And the “Mean necrosis/cell death score” value [2, 8]?
Answer: 0.40±0.70 and 0.40

Question: What about the “Mean edema/HM/congestion score” value [2, 8] of the same molecule?
Answer: 0.60±0.52 and 0.60

Question: What about the Mean inflammation score [2, 8] of the same molecule?
Answer: 1.60±1.17 and 1.60

Question: What about the “Mean total score according” value [2, 8] of the same molecule?
Answer: 2.80±2.35 and 2.80

Question: And the “Severity, distribution and incidence of pulmonary lesions in comparison to influenza treated mice” value ([2]; groups 3M, 4M, 5M and 6M (Plerixafor 2.5, 5, 10, 20 mg/kg daily SC))?
Answer: slightly lower

Question: What about the “Percentage of fibrocytes recruited in the lung” value (“Percentage” below) ([3]; Infected+Plerixafor 1 mg/kg daily SC) of the same molecule?
Answer: 19.77±19.93%

Question: What about the “Percentage” value ([3]; Infected+Plerixafor 3 mg/kg daily SC) of the same molecule?
Answer: 12.90±5.44%

Question: What about the “Percentage” value ([3]; Infected+Plerixafor 10 mg/kg daily SC) of the same molecule?
Answer: 23.86±18.39%

Question: And the “Effect on the recruitment of fibrocytes in the lung” value ([3]; whatever the Plerixafor dosage tested (1, 3, 10 mg/kg daily), no dose-effect)?
Answer: does not affect significantly

Question: What about the “Mean IL-17 levels in lung homogenates” value [4, 5] of the same molecule?
Answer: 748.08 pg/ml/g of tissue

Question: What about the “Mean IL-1β levels in lung homogenates” value [4, 5] of the same molecule?
Answer: 4317.27 pg/ml/g of tissue

Question: What about the “Mean TNFα levels in lung homogenates” value [4, 5] of the same molecule?
Answer: 8983.01 pg/ml/g of tissue

Question: And the “Mean IL-6 levels in lung homogenates” value [4, 5]?
Answer: 11166.93 pg/ml/g of tissue

Question: What about the “Mean C5a levels in lung homogenates” value [4, 5] of the same molecule?
Answer: 3699919.44 pg/ml/g of tissue

Question: What about the “Mean CRP levels in lung homogenates” value [4, 5] of the same molecule?
Answer: 9241738.89 pg/ml/g of tissue

Question: And the “Mean IL-17 levels in lung homogenates” value [4, 6]?
Answer: 663.57 pg/ml/g of tissue

Question: And the “Mean IL-1β levels in lung homogenates” value [4, 6]?
Answer: 2534.11 pg/ml/g of tissue

Question: What about the “Mean TNFα levels in lung homogenates” value [4, 6] of the same molecule?
Answer: 9307.38 pg/ml/g of tissue

Question: And the “Mean IL-6 levels in lung homogenates” value [4, 6]?
Answer: 11059.46 pg/ml/g of tissue

Question: And the “Mean C5a levels in lung homogenates” value [4, 6]?
Answer: 3440259.52 pg/ml/g of tissue

Question: And the “Mean CRP levels in lung homogenates” value [4, 6]?
Answer: 7792352.38 pg/ml/g of tissue

Question: And the “Mean IL-17 levels in lung homogenates” value [4, 7]?
Answer: 799.98 pg/ml/g of tissue

Question: What about the “Mean IL-1β levels in lung homogenates” value [4, 7] of the same molecule?
Answer: 3319.66 pg/ml/g of tissue

Question: And the “Mean TNFα levels in lung homogenates” value [4, 7]?
Answer: 11138.01 pg/ml/g of tissue

Question: And the “Mean IL-6 levels in lung homogenates” value [4, 7]?
Answer: 13927.98 pg/ml/g of tissue

Question: And the “Mean C5a levels in lung homogenates” value [4, 7]?
Answer: 3519038.68 pg/ml/g of tissue

Question: And the “Mean CRP levels in lung homogenates” value [4, 7]?
Answer: 8406400.43 pg/ml/g of tissue

Question: And the “Mean IL-17 levels in lung homogenates” value [4, 8]?
Answer: 603.22 pg/ml/g of tissue

Question: And the “Mean IL-1β levels in lung homogenates” value [4, 8]?
Answer: 2805.78 pg/ml/g of tissue

Question: What about the “Mean TNFα levels in lung homogenates” value [4, 8] of the same molecule?
Answer: 6224.51±3014.54 pg/ml/g of tissue and 6224.51 pg/ml/g of tissue

Question: What about the “Mean IL-6 levels in lung homogenates” value ([4]; Plerixafor 20 mg/kg daily SC (group 6M), p<0.05) of the same molecule?
Answer: 5408.82±3539.57 pg/ml/g of tissue and 5408.82 * pg/ml/g of tissue

Question: And the “Mean C5a levels in lung homogenates” value [4, 9]?
Answer: 2220172.76±972810.94 pg/ml/g of tissue and 2220172.76 pg/ml/g of tissue

Question: What about the “Mean CRP levels in lung homogenates” value [4, 9] of the same molecule?
Answer: 4488307.08±2059120.87 pg/ml/g of tissue and 4488307.08 pg/ml/g of tissue

Question: And the “Modulation of IL-1β levels” value [4, 10]?
Answer: did not significantly modulate

Question: And the “Modulation of IL-17 levels” value [4, 10]?
Answer: did not significantly modulate

Question: What about the “Modulation of C5a levels” value [4, 11] of the same molecule?
Answer: did not significantly modulate

Question: What about the “Modulation of IL-6 levels in comparison to Influenza group” value [4, 11] of the same molecule?
Answer: did not significantly modulate

Question: What about the “Modulation of TNFα levels” value [4, 11] of the same molecule?
Answer: did not significantly modulate

Question: What about the “Modulation of CRP levels” value ([4]; Plerixafor at 2.5, 5 and 10 mg/kg) of the same molecule?
Answer: did not significantly modulate
